Measurements from patent US20150045409A1, “AMIDE COMPOUND AND USE THEREOF FOR PEST CONTROL” (SUMITOMO CHEMICAL COMPANY, LIMITED, priority 2012, published 2015).

Assays:
[1] = test system: adult common house mosquitos; assay: Spray knockdown test on adult common house mosquitos (Test Examples 5, 6); assay type: in vivo; conditions: active ingredient 0.02% w/v oil solution, 0.5 ml sprayed, counted after 15 minutes
Experimental: (§1) The formulations of Compounds (2), (7), (48) and (49) of the present invention obtained in Formulation Example 7 were diluted with a mixture solution with a ratio of isopropyl alcohol/deodorized kerosene of 1/9, so as to have a concentration of active ingredient of 0.1% w/v, to prepare a test drug solution.
Ten adult common house mosquitos were released in a polyethylene cup (a bottom diameter of 10.6 cm) which was then capped with 16-mesh nylon gauze. The polyethylene cup was placed on the bottom of a test chamber (bottom: 46 cm×46 cm, height: 70 cm). From a height of 30 cm above the upper surface of the polyethylene cup, 0.5 ml of the test drug solution was sprayed using a spray gun (a spraying pressure of 0.4 kg/cm^2). Immediately after spraying, the cup was taken out from the test container, and after 15 minutes, the number of knockdown insects was counted to obtain a knockdown rate. The knockdown rate was calculated by the following equation.
Knockdown Rate(%)=(Number of Knockdown Insects/Number of Tested Insects)×100
as §1, with “Each of the” for “The”, “(19)” for “(2), (7), (48)”, “(40) to (42)” for “(49)”, “was” for “were”, “0.02%” for “0.1%”, “solution. […]” for “solution.”

[2] = test system: third-instar larvae of diamondback moth (Plutella xylostella); assay: Cabbage foliar spray test on diamondback moth larvae (Test Example 11); assay type: in vivo; conditions: 500 ppm spray, 20 ml/cup on cabbage, after 5 days
Experimental: On the other hand, a cabbage was planted in a polyethylene cup and grown until the third true leaf or the fourth true leaf was developed. The test spray solution was sprayed in a ratio of 20 ml/cup on the cabbage. After the drug solution sprayed on the cabbage was dried, 10 third-instar larvae of diamondback moth (Plutella xylostella) were put on the cabbage. After 5 days, the number of diamondback moths was counted, and a controlling value was calculated by the following equation. […] Letters in the formula have the following meanings. Cb: the number of insects in an untreated section before treatment Cai: the number of insects in an untreated section on observation Tb: the number of insects in a treated section before treatment Tai: the number of insects in a treated section on observation

SMILES | knockdown rate [1] | controlling value [2]
CCCC[C@@H]1C[C@H]1/C=C/C(=O)NCC1CCOC1 (relative stereo) [Compound (19), (E)-N-(tetrahydrofuran-3-ylmethyl)-3-(trans-2′-butylcyclopropyl)-2-propenamide] | ≥ 90% | 
CCCCC1C(/C=C/C(=O)NCC2CCOCC2)C1(C)C (stereo not drawn) [Compound (43), (E)-N-(tetrahydropyran-4-ylmethyl)-3-(trans-2′-butyl-3′,3′-dimethylcyclopropyl)-2-propenamide] |  | 100%
